Laboratory results as given in US20240317735A1, “HYDROISOQUINOLINE OR HYDRONAPHTHYRIDINE COMPOUNDS FOR THE TREATMENT OF AUTOIMMUNE DISEASE” (Hoffmann-La Roche Inc., priority 2020, published 2024).

Columns and labels:
hERG channel = molecular target: T1, hERG channel (Homo sapiens, UniProt Q12809); assay: hERG channel inhibition assay (patch-clamp, CHOhERG cells); format: cell-based; conditions: for IC50 / IC20: CHOhERG cells, whole-cell patch-clamp; for IC20: human, CHO cells stably expressing hERG (CHOhERG); for hERG IC20/TLR7 IC50 / hERG IC20/TLR8 IC50 / hERG IC20/TLR9 IC50: safety ratio; for hERG IC20/TLR7 IC50: hERG IC20 over HEK/hTLR7 IC50; for hERG IC20/TLR8 IC50: hERG IC20 over HEK/hTLR8 IC50; for hERG IC20/TLR9 IC50: hERG IC20 over HEK/hTLR9 IC50
T1 construct: expressed in transfected cells; host or cells: CHO (CHOhERG)
Protocol: The hERG K^+ channels were cloned in humans and stably expressed in a CHO (Chinese hamster ovary) cell line. CHOhERG cells were used for patch-clamp (voltage-clamp, whole-cell) experiments. Cells were stimulated by a voltage pattern to activate hERG channels and conduct IKhERG currents (rapid delayed outward rectifier potassium current of the hERG channel). After the cells were stabilized for a few minutes, the amplitude and kinetics of IKhERG were recorded at a stimulation frequency of 0.1 Hz (6 bpm). Thereafter, the test compound was added to the preparation at increasing concentrations. For each concentration, an attempt was made to reach a steady-state effect, usually, this was achieved within 3-10 min at which time the next highest concentration was applied. The amplitude and kinetics of IKhERG are recorded in each concentration of the drug which were compared to the control values (taken as 100%). (references: Redfern W S, Carlsson L, Davis A S, Lynch W G, MacKenzie I, Palethorpe S, Siegl P K, Strang I, Sullivan A T, Wallis R, Camm A J, Hammond T G. 2003; Relationships between preclinical cardiac electrophysiology, clinical QT interval prolongation and torsade de pointes for a broad range of drugs: evidence for a provisional safety margin in drug development. Cardiovasc. Res. 58:32-45, Sanguinetti MC, Tristani-Firouzi M. 2006; hERG potassium channels and cardiac arrhythmia. Nature 440:463-469, Webster R, Leishman D, Walker D. 2002; Towards a drug concentration effect relationship for QT prolongation and torsades de pointes. Curr. Opin. Drug Discov. Devel. 5:116-26).

TLR9 = molecular target: T2, TLR9 (Homo sapiens, UniProt Q9NR96); assay: Human PBMC cell-based assay (CpG ODN 2216 stimulation); set-up: These cells express TLR7, TLR8, or TLR9, and therefore are natural responders to respective ligand stimulation; endogenous in cells; host or cells: human PBMC from healthy donor whole blood; conditions: CpG ODN 2216 at 1 μM, overnight, read-out: hPBMC/TLR9 IC50
T2 sequence (Q9NR96 26-1032): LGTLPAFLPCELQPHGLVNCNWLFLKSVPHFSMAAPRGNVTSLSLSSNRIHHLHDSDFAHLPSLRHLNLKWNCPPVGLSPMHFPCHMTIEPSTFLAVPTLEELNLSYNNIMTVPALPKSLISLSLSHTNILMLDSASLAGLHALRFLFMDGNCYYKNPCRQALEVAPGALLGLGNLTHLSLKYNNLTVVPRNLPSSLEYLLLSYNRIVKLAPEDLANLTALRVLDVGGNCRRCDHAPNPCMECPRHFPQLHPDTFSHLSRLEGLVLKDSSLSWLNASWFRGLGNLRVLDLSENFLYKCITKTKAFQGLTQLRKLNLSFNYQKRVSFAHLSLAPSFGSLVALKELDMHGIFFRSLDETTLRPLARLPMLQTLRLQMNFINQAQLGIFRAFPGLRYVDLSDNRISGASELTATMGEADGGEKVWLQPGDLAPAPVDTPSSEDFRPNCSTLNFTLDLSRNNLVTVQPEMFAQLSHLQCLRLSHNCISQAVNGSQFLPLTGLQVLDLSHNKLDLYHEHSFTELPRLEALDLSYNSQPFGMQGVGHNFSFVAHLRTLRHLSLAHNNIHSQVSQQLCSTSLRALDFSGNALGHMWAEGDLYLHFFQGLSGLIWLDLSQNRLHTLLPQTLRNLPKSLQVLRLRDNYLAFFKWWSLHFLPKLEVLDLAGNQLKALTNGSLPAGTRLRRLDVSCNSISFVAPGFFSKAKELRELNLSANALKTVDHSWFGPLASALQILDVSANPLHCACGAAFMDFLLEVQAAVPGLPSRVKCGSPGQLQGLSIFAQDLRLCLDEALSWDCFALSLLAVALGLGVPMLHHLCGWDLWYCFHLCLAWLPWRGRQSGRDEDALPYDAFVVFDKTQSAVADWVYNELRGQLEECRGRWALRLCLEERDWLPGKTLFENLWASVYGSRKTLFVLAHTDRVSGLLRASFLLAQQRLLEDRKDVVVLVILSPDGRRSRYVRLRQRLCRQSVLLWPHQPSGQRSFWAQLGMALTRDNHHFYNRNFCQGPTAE
Source text: Unlike the HEK reporter cell lines, human peripheral blood mononuclear cell (PBMC) represents primary human immune cells in blood mainly consisting of lymphocytes, monocytes, and dendritic cells. These cells express TLR7, TLR8, or TLR9, and therefore are natural responders to respective ligand stimulation. Upon activation of these TLRs, PBMCs secrete similar cytokines and chemokines in vitro and in vivo, and therefore the in vitro potency of a TLR7/8/9 antagonist in human PBMC is readily translatable to its pharmacodynamics response in vivo.
Human peripheral blood mononuclear cells (PBMC) were isolated from freshly-drawn lithium-heparinized (Lithium Heparin Plus blood Collection tube, BD Vacutainer®) healthy donor whole blood by density gradient (Ficoll-Paque™ PLUS, GE Healthcare life Sciences). Briefly, 50 mL of blood was diluted with 25 mL PBS (without Ca^2+, Mg^2+) in a 50 mL conical tube with porous barrier (Leucosep tube, Greiner bio-one), where 15.5 mL Ficoll-Paque was under laid after spinning. Tubes were centrifuged for 20 minutes at 800×g (1946 rpm) with the brake in the off position, and PBMC were collected from the buffy coat. Cells were then washed twice in PBS, and red blood cells were lysed by suspension in 2 mL (Red Blood Cell Lysis Buffer, Alfa Aesar) for 5-10 minutes at room temperature. After a final wash in PBS, PBMC were resuspended at a final concentration of 2×10^6 cells/mL in RPMI-1640 media with GlutaMAX™ (Gibco) supplemented with 10% Fetal Bovine Serum (Sigma) and plated at 150 μL/well (3×10^5 cells/well) in tissue culture treated round bottom 96-well plates (Corning Incorporated). Antagonist compounds (compounds of this invention) solubilized and serial diluted in 100% DMSO were added in duplicate to cells to yield a final concentration of 1% DMSO (v/v). PBMC were incubated with antagonist compounds for 30 minutes at 37° C., 5% CO2 before adding various TLR agonist reagents in 48 μL complete media per well as follows (final concentrations indicated): CpG ODN 2216 (InvivoGen) at 1 μM for TLR9, ORN 06/LyoVec (InvivoGen) at […] for TLR8 and R848 (InvivoGen) at 1p g/mL for TLR7 and TLR8. PBMC were incubated overnight at 37° C. with 5% CO2. Cell culture supernatants were collected, and levels of various human cytokines were assessed by Luminex assay (ProcartaPlex™ Multiplex Immunoassay, Invitrogen) or ELISA procedure according to the manufacturer's recommended protocol (eBioscience, ThermoFisher Scientific). Viability of the cells was also checked with Cell Viability Assay (CellTiter Glo®Luminescent Cell Viability Assay, Promega).

T1 sequence (Q12809 whole entry): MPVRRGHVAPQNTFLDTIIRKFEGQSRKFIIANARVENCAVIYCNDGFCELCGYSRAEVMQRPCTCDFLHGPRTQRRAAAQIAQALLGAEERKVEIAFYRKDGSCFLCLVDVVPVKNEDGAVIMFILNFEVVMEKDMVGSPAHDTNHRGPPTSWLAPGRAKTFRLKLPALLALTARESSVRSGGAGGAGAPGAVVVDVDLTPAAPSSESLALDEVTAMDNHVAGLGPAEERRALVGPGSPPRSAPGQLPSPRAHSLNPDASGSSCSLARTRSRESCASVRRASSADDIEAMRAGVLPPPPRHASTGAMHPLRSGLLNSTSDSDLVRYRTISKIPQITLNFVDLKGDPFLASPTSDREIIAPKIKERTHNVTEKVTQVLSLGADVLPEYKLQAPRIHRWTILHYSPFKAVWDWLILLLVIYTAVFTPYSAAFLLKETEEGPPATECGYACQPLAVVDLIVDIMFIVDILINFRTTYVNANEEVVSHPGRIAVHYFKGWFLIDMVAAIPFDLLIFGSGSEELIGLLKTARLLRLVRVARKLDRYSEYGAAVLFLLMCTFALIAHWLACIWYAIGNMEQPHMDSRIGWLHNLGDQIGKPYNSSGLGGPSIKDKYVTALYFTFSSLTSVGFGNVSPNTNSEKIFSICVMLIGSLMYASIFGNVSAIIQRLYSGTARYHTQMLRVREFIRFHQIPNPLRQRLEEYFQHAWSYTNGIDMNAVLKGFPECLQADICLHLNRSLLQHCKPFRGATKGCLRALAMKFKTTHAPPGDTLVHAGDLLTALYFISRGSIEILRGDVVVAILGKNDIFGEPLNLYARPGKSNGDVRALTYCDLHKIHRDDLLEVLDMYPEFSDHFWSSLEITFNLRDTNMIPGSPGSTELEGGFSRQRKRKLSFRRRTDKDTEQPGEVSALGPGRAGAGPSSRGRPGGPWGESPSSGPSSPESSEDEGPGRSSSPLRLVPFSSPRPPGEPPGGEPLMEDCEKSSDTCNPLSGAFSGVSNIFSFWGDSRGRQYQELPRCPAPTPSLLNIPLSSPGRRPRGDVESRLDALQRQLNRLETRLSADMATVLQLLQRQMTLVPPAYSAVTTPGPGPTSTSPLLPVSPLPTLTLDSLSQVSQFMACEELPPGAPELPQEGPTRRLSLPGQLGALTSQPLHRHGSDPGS

Structure (SMILES) | IC50 (hERG channel) | IC20 (hERG channel) | hERG IC20/TLR7 IC50 (hERG channel) | hERG IC20/TLR8 IC50 (hERG channel) | hERG IC20/TLR9 IC50 (hERG channel) | IC50 (TLR9)
C[C@H]1CN(c2ccnc3c2cnn3C)Cc2ccc(OC[C@H]3CNCCN3)cc21 [Example 18, (4R)-4-methyl-2-(1-methylpyrazolo[3,4-b]pyridin-4-yl)-6-[[(2R)-piperazin-2-yl]methoxy]-3,4-dihydro-1H-isoquinoline] | > 20 µM | > 10 µM | >1250.0 | >2500.0 | >90.1 | 0.365 µM
Cc1cc(N2Cc3ccc(OC[C@@H]4CNCCN4)cc3[C@@H](C)C2)c2cnn(C)c2n1 [Example 31, (4R)-2-(1,6-dimethylpyrazolo[3,4-b]pyridin-4-yl)-4-methyl-6-[[(2S)-piperazin-2-yl]methoxy]-3,4-dihydro-1H-isoquinoline] | > 20 µM | 8.5 µM | 354.2 | 4250.0 | 81.0 | 0.214 µM
C[C@H]1CN(c2ccnc3c2cnn3C)Cc2ccc(OC[C@@H]3CNCCN3)cc21 [Example 19, (4R)-4-methyl-2-(1-methylpyrazolo[3,4-b]pyridin-4-yl)-6-[[(2S)-piperazin-2-yl]methoxy]-3,4-dihydro-1H-isoquinoline] | > 20 µM | 6.3 µM | 787.5 | 1575.0 | 62.4 | 0.395 µM
